Paper PMC3914206

Experiments:
Type in all cases: binding
Conditions in all cases: Compound Concentration 10 µM
panel of 442 kinases [1] = molecular target: T1, panel of 442 kinases (Homo sapiens, UniProt P54764)
T1 construct: purchased KINOMEscan
Text: (§1) We assessed the selectivity of members of this scaffold using the KINOMEscan methodology across a near comprehensive panel of 442 kinases [[18,27]].

panel of 442 kinases [2] = molecular target: T2, panel of 442 kinases (Homo sapiens, UniProt Q9H4B4)
T2 construct: purchased KINOMEscan
Text: as §1

panel of 442 kinases [3] = molecular target: T3, panel of 442 kinases (Homo sapiens, UniProt P10721, D816H)
T3 construct: purchased KINOMEscan
Text: as §1

panel of 442 kinases [4] = molecular target: T4, panel of 442 kinases (Homo sapiens, UniProt P78368)
T4 construct: purchased KINOMEscan
Text: as §1

T1 sequence (P54764 20-986): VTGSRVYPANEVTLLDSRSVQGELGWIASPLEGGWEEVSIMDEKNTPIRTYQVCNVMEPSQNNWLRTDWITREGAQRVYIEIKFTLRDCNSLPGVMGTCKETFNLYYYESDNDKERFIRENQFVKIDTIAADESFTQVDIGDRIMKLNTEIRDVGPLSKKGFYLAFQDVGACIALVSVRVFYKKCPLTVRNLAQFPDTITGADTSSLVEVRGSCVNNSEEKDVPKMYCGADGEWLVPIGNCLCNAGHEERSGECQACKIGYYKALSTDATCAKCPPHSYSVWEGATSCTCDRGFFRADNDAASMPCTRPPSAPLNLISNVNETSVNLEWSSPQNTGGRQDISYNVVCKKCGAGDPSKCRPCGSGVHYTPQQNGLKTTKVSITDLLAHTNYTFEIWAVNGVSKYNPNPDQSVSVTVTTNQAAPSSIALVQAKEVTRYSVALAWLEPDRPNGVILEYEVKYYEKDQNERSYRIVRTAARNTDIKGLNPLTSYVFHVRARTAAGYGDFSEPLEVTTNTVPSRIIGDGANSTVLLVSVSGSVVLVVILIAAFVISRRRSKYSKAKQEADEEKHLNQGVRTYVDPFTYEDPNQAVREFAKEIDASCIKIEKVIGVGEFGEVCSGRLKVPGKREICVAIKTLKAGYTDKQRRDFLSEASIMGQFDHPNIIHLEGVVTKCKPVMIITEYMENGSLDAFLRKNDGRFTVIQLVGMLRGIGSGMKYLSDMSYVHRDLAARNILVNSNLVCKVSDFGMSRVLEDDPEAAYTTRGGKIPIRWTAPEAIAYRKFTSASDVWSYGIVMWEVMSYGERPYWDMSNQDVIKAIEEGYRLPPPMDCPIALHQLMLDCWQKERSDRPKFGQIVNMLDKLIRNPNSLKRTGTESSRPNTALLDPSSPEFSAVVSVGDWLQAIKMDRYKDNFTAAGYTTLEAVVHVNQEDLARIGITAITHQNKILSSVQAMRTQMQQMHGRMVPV
T2 sequence (Q9H4B4 whole entry): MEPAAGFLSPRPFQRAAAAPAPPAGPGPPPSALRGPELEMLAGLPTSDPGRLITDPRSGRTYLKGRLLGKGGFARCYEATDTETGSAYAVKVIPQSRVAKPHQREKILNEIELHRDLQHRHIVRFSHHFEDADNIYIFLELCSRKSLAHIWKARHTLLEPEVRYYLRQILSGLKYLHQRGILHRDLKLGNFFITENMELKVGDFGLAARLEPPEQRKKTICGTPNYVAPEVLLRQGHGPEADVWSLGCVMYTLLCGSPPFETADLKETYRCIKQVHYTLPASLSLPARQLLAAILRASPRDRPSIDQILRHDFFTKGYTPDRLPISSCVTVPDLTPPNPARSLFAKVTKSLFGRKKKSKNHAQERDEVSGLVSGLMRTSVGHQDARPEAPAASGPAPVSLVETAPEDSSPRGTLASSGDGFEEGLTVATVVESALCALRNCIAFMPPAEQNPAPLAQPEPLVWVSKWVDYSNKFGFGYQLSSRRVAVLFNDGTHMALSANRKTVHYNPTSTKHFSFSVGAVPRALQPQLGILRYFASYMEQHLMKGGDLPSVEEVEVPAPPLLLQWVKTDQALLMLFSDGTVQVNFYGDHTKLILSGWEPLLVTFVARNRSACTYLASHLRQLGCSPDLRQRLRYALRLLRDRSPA
T4 sequence (P78368 whole entry): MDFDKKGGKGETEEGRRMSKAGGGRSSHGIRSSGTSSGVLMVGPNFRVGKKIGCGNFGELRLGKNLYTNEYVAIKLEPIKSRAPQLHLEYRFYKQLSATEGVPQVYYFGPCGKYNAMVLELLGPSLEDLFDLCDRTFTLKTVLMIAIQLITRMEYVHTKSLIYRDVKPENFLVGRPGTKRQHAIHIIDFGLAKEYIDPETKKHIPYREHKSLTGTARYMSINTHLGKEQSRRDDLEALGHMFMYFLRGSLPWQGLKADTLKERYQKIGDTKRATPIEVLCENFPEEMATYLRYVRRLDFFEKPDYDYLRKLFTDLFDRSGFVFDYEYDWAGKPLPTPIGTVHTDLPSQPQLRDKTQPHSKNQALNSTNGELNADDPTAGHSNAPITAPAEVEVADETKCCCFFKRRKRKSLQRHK
T3 sequence (P10721 26-976 D816H): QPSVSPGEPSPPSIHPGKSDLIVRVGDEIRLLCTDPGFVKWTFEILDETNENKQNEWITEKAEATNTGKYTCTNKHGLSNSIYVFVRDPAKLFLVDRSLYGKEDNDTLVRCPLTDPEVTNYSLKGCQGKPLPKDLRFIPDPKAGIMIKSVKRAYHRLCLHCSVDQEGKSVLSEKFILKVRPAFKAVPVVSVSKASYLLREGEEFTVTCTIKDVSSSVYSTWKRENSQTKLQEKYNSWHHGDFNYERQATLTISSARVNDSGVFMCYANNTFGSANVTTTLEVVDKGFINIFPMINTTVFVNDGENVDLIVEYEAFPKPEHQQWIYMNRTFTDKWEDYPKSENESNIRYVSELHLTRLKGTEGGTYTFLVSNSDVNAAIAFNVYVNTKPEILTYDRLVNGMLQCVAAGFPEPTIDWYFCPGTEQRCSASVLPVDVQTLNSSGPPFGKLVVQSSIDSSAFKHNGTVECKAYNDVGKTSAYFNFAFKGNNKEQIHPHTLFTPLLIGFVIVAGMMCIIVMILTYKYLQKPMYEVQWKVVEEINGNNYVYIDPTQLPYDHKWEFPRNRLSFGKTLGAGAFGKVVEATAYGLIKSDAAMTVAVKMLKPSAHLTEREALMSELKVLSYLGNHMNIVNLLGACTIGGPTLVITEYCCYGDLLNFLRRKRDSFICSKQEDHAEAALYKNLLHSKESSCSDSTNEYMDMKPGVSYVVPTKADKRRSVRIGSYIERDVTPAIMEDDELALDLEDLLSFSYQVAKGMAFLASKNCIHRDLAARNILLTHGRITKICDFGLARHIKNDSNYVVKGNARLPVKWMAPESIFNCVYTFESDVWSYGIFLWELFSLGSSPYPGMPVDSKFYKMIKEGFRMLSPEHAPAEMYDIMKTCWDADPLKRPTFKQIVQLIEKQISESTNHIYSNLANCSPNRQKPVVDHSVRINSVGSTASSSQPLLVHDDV

Row | Structure (SMILES) | KINOMEscan: EPHA4 (panel of 442 kinases [1]) | KINOMEscan: PLK3 (panel of 442 kinases [2]) | KINOMEscan: KIT(D816H) (panel of 442 kinases [3]) | KINOMEscan: CSNK1G2 (panel of 442 kinases [4])
1 | COc1cc(C(=O)N2CCC(N3CCN(C)CC3)CC2)ccc1Nc1ncc2c(n1)N1CCc3cccc(c31)C(=O)N2C [Compound 24] | 97 | 3.8 |  | 
2 | CCOc1cc(C(=O)N2CCC(N3CCN(C)CC3)CC2)ccc1Nc1ncc2c(n1)N(C1CCCC1)c1ccccc1C(=O)N2C [Compound 26] | 100 | 84 | 100 | 96
3 | COc1cc(C(=O)N2CCC(N3CCN(C)CC3)CC2)ccc1Nc1ncc2c(n1)N(C1CCCC1)c1ccccc1C(=O)N2C [Compound 25, 11-cyclopentyl-2-((2-methoxy-4-(4-(4-methylpiperazin-1-yl)piperidine-1-carbonyl)phenyl)amino)-5-methyl-5H-benzo[e]pyrimido[5,4-b][1,4]diazepin-6(11H)-one] | 100 | 73 | 100 | 91
4 | COc1cc(C(=O)N2CCC(N3CCN(C)CC3)CC2)ccc1Nc1ncc2c(n1)N(C)c1ccccc1C(=O)N2C [15 (LRRK2-IN-1)] | 89 | 51 | 100 | 100
